Laboratory results: US11820822B2, “Methods for sensitizing cancer cells to T cell-mediated killing by modulating molecular pathways” (DANA-FARBER CANCER INSTITUTE, INC., priority 2017, dated 2023)

Tests used:
[1] = test system: B16F10-Cas9 cells co-cultured with Pmel-1 T cells; experiment: Genome-scale CRISPR-Cas9 screen, selection with Pmel-1 T cells; assay type: cell-based, mouse; conditions: Table 3; B16F10-Cas9 cells pre-treated with IFNγ, co-cultured with Pmel-1 T cells 1:1 for three days; negative = depleted, positive = enriched
[2] = test system: B16F10-Cas9 cells pulsed with SIINFEKL peptide, co-cultured with OT-I T cells; experiment: Genome-scale CRISPR-Cas9 screen, selection with OT-I T cells; assay type: cell-based, mouse; conditions: Table 3; B16F10-Cas9 cells pulsed with SIINFEKL, co-cultured with OT-I T cells 1:1 for one day; negative = depleted, positive = enriched

| Sequence | Pmel+ (sgRNA Log(2) fold change, Pmel-1 selection versus control T cells) [1] | OT1 (sgRNA Log(2) fold change, OT-I selection versus control T cells) [2] |
| --- | --- | --- |
| CAGCAGCAAGTTCACAGGTG (chemistry not fully specified) | -1.37 | -3.04 |
| CAGCATTGACAATACGACCA (chemistry not fully specified) | 0.62 | -3.84 |
| CAGCCTGCTGAGGATCCAGA (chemistry not fully specified) | -1.07 | -2.33 |
| CAGGACTTCTGGTCTATCCG (chemistry not fully specified) | -1.47 | -3.14 |
| CAGTGTCACAACCCACCGGA (chemistry not fully specified) | 0.23 | -2.75 |
| CATAGCCAGAACAGTTGACC (chemistry not fully specified) | -0.66 | -2.44 |
| CATGAGGTAGAATAGTTCGT (chemistry not fully specified) | 2.15 | -0.65 |
| CATGCAATACATGCCAAAGG (chemistry not fully specified) | -0.22 | -2.39 |
| CCAAACACCCCACATATGGT (chemistry not fully specified) | -0.79 | -2.24 |
| CCATATCCAAATAGCCACAG (chemistry not fully specified) | -2.19 | -3.59 |
| CCATTGTATAACTGTCTGCG (chemistry not fully specified) | -1.14 | -3.02 |
| CCCACGAATTCGTCACAGGG (chemistry not fully specified) | 2.63 | 1.32 |
| CCCGGACTGGATCAACACCG (chemistry not fully specified) | -0.09 | -3.76 |
| CCCGGGAATAGCGTACAGCT (chemistry not fully specified) | 0.70 | -2.71 |
| CCGAGACCCCAATAGTGCAA (chemistry not fully specified) | 2.89 | 0.71 |
| CCGCAGCAGATAGACACCAT (chemistry not fully specified) | -0.11 | -2.54 |
| CCGCTCGAAGAAGCACTCCT (chemistry not fully specified) | 0.95 | -3.04 |
| CCTCCGACATTCCGTAACTG (chemistry not fully specified) | -1.90 | -2.32 |
| CCTGGGCTAGCACATAACCA (chemistry not fully specified) | 0.10 | -3.35 |

| Sequence | Pmel+ (sgRNA Log(2) fold change, Pmel-1 selection versus control T cells) [1] | OT1 (sgRNA Log(2) fold change, OT-I selection versus control T cells) [2] |
| --- | --- | --- |
| CCTGGGTACCAACTGACGAA (chemistry not fully specified) | -2.96 | -2.91 |
| CCTTCAATAACGTTAAACAG (chemistry not fully specified) | -0.26 | -2.79 |
| CCTTTAGTAGCAGAAGCCGC (chemistry not fully specified) | 0.73 | -2.95 |
| CGACGCAAGTGGGAGCAGAG (chemistry not fully specified) | 3.91 | -2.09 |
| CGATGCCATTCGAATGACAG (chemistry not fully specified) | 8.40 | 1.57 |
| CGGATGGCCACACGTAACAG (chemistry not fully specified) | 3.00 | 0.20 |
| CGGCCCGCCGATGTCGTGTG (chemistry not fully specified) | -0.25 | -3.19 |
| CGGGTATTACAGACTAACTG (chemistry not fully specified) | 3.20 | 2.71 |
| CTCAGCTGGATACAACCAGG (chemistry not fully specified) | 0.00 | -2.27 |
| CTCTTCCAACACGTCCAAGT (chemistry not fully specified) | 3.56 | 0.64 |
| CTGAGCATGTCTAACACGAG (chemistry not fully specified) | -0.37 | -2.99 |
| CTGCACCAATGTTGGTCACG (chemistry not fully specified) | 2.82 | 0.32 |
| CTGCAGCATATCGTCAACCA (chemistry not fully specified) | -0.72 | -2.30 |
| CTGTTACCTTCATAGATAAG (chemistry not fully specified) | 0.00 | -2.50 |
| CTTCAGATCTCTCTCGAATG (chemistry not fully specified) | -2.11 | -2.84 |
| CTTCCTGGACATCGACGTGG (chemistry not fully specified) | 0.56 | -2.12 |
| CTTGGTCAAATACACTACAG (chemistry not fully specified) | 2.66 | 1.61 |
| CTTGTGACGGTAATTCTGAA (chemistry not fully specified) | 0.00 | -2.48 |
| GAAAAATCTGTACACCACCG (chemistry not fully specified) | -0.30 | -2.64 |
